How the values were obtained:
KIF1A-560-GFP = biological target: T1, KIF1A-560-GFP (Rattus norvegicus, UniProt F1M4A4); experiment: single-molecule TIRF microtubule off-rate versus [ADP], hyperbolic fit; type: binding; details: motor bound to Taxol-stabilized microtubules; BRB80 (80 mM PIPES, pH 6.9), 25 °C; fit ± 95% CI; authors equate K0.5 with KD
T1 construct: motor head and neck linker, residues 1-368, followed by Drosophila melanogaster KHC neck coil and coil-1 (216 residues by b8; b50 says additional 216 residues), C-terminal GFP and His6; bacterial expression; homodimer
T1 sequence (F1M4A4 1-368): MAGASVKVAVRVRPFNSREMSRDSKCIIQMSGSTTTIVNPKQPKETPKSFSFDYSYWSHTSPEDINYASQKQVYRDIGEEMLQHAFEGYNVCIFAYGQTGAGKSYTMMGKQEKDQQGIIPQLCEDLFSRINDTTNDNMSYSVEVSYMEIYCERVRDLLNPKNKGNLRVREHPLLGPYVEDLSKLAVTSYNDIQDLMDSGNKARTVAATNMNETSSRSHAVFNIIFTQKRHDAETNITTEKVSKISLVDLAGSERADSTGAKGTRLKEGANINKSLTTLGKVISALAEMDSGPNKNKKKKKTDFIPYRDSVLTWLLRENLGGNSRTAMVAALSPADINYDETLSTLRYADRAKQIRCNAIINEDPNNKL

KIF1A-406 [1] = biological target: T2, KIF1A-406 (Rattus norvegicus, UniProt F1M4A4); experiment: stopped-flow dissociation, ADP-bound motor flushed against […] mADP; type: binding; details: no microtubules; BRB80, pH 6.9, 25 °C; b26 prints the error as ± 0.005
T2 construct: motor head and neck linker, residues 1-368, followed by 61 residues of Drosophila melanogaster KHC neck coil (printed 'residues 445-405', probably 345-405) for dimerization; C-terminal His6; E. coli-type bacterial expression; homodimer
T2 sequence (F1M4A4 1-368): T1 sequence (F1M4A4 1-368)

KIF1A-406 [2] = biological target: T2, KIF1A-406; experiment: stopped-flow nucleotide-triggered half-site release of mADP, Michaelis-Menten fit; type: biochemical; details: one-head-bound complex with 3 μM Taxol-stabilized microtubules, mADP in tethered head; BRB80 (80 mM PIPES, 1 mM MgCl2, pH 6.9), 25 °C; fit ± 95% CI; read-out: Experimental

Kd (KIF1A-560-GFP) [µM]	mADP dissociation rate constant (KIF1A-406 [1]) [s⁻¹]	Km (KIF1A-406 [2]) [µM]	Structure (SMILES)
93 ± 204	0.26 ± 0.001		Nc1ncnc2c1ncn2[C@@H]1O[C@H](COP(=O)(O)OP(=O)(O)O)[C@@H](O)[C@H]1O [ADP]
		119 ± 21	Nc1ncnc2c1ncn2[C@@H]1O[C@H](COP(=O)(O)OP(=O)(O)OP(=O)(O)O)[C@@H](O)[C@H]1O [ATP]
